Assay results as given in US20230136600A1, “Method and device for screening antigen epitope polypeptide” (priority 2020, published 2023).

Assays:
[1] = tested on: novel coronavirus (live coronavirus), vero cells; test: In-vitro live virus neutralization experiment with serum of immunized mice (CPE method); assay type: in vivo, SARS-CoV-2; conditions: Embodiment I: single peptide 100 μg + MF59 at Day 0, 14, 28, Balb/c mice, serum Day 35
Balb/c mice = test: Polypeptide chip-based vaccine immunogenicity scoring system; assay type: in vivo; design: key to A2: whether the 95 percentile of the last sampling is increased compared with the end point: Y = rise; N = no rise
[2] = Embodiment III, polypeptide-KLH
[3] = Embodiment III, polypeptide-KLH, Mix1-10
[4] = Embodiment III, polypeptide-KLH, total score = 5
[5] = Embodiment III, polypeptide-KLH, value of the whole mix
[6] = adjuvant AddaVax, 7 peptides co-immunized in mice
[7] = adjuvant Adju-Phos, 7 peptides co-immunized in mice
[8] = adjuvant Alhydrogel, 7 peptides co-immunized in mice
[9] = adjuvant Imjet Alumn, 7 peptides co-immunized in mice
[10] = adjuvant MA103A, 7 peptides co-immunized in mice
[11] = adjuvant MA103B, 7 peptides co-immunized in mice

With “MEVTPSGTWLTY (SARS-CoV-2) [SEQ ID NO:22]” the “Neutralizing antibody positive rate (%)” value [1] was 20%, the “B1: D 0-D 14 95 percentile rise in the number of mice” value (Balb/c mice; [2]) was 3 and the “B2: D 0-D 21 95 percentile rise in the number of mice” value (Balb/c mice; [2]) was 3. The “B3: D 14-D 21 95 percentile rise in the number of mice” value (Balb/c mice; [2]) was 3, the “B4: D 21-D 28 95 percentile rise in the number of mice” value (Balb/c mice; [2]) was 0 and the “A1: difference between a highest median and a D 0 median (95 percentile)” value (Balb/c mice; [3]) was 0.07. The “A2: whether the 95 percentile of the last sampling is increased compared with the end point” value (Balb/c mice; [3]) was “N”, the Total single peptide (Balb/c mice; Embodiment III, polypeptide-KLH, A*3 + B*2 + C*1) was 10.7 and the “A: 95 percentile grouping number score” value (Balb/c mice; [4]) was 2. For the same sequence, the “B: Mouse performance score” value (Balb/c mice; [4]) was 2.1, the “C1: #A timing-sequence response peptide fragment set” value (Balb/c mice; [5]) was 352 and the “C2: #B vaccine specificity peptide fragment set” value (Balb/c mice; [5]) was 541. For the same sequence, the “C3: Intersection of A and B” value (Balb/c mice; [5]) was 1, the “C4: Percentage of the intersection in set B” value (Balb/c mice; [5]) was 0.185 and the “C: Timing-sequence response and specificity score” value (Balb/c mice; [5]) was 0.5. The “1) 95 percentile grouping number A” value (Balb/c mice; [6]) was 4, the “1) 95 percentile grouping number A1” value (Balb/c mice; [6]) was 0.05 and the “2) Mouse performance B” value (Balb/c mice; [6]) was 2.9. The “2) Mouse performance B1” value (Balb/c mice; [6]) was 3, the “2) Mouse performance B2” value (Balb/c mice; [6]) was 4 and the “2) Mouse performance B3” value (Balb/c mice; [6]) was 3. The “3) Timing-sequence response and specificity C” value (Balb/c mice; [6]) was 0, the “3) Timing-sequence response and specificity C1” value (Balb/c mice; [6]) was 237 and the “3) Timing-sequence response and specificity C2” value (Balb/c mice; [6]) was 1244. The “3) Timing-sequence response and specificity C3” value (Balb/c mice; [6]) was 0, the “3) Timing-sequence response and specificity C4” value (Balb/c mice; [6]) was 0.000 and the Total single peptide (Balb/c mice; [6]) was 17.8. For the same sequence, the “1) 95 percentile grouping number A” value (Balb/c mice; [7]) was 5, the “1) 95 percentile grouping number A1” value (Balb/c mice; [7]) was 0.075 and the “2) Mouse performance B” value (Balb/c mice; [7]) was 2.1. The “2) Mouse performance B1” value (Balb/c mice; [7]) was 3, the “2) Mouse performance B2” value (Balb/c mice; [7]) was 4 and the “2) Mouse performance B3” value (Balb/c mice; [7]) was 1. For the same sequence, the “3) Timing-sequence response and specificity C” value (Balb/c mice; [7]) was 0, the “3) Timing-sequence response and specificity C1” value (Balb/c mice; [7]) was 203 and the “3) Timing-sequence response and specificity C2” value (Balb/c mice; [7]) was 1244. The “3) Timing-sequence response and specificity C3” value (Balb/c mice; [7]) was 0, the “3) Timing-sequence response and specificity C4” value (Balb/c mice; [7]) was 0.000 and the Total single peptide (Balb/c mice; [7]) was 19.2. The “1) 95 percentile grouping number A” value (Balb/c mice; [8]) was 2, the “1) 95 percentile grouping number A1” value (Balb/c mice; [8]) was 0.03 and the “2) Mouse performance B” value (Balb/c mice; [8]) was 1.7. The “2) Mouse performance B1” value (Balb/c mice; [8]) was 3, the “2) Mouse performance B2” value (Balb/c mice; [8]) was 2 and the “2) Mouse performance B3” value (Balb/c mice; [8]) was 1. For the same sequence, the “3) Timing-sequence response and specificity C” value (Balb/c mice; [8]) was 1, the “3) Timing-sequence response and specificity C1” value (Balb/c mice; [8]) was 123 and the “3) Timing-sequence response and specificity C2” value (Balb/c mice; [8]) was 1244. The “3) Timing-sequence response and specificity C3” value (Balb/c mice; [8]) was 2, the “3) Timing-sequence response and specificity C4” value (Balb/c mice; [8]) was 0.161 and the Total single peptide (Balb/c mice; [8]) was 9.9. For the same sequence, the “1) 95 percentile grouping number A” value (Balb/c mice; [9]) was 5, the “1) 95 percentile grouping number A1” value (Balb/c mice; [9]) was 0.145 and the “2) Mouse performance B” value (Balb/c mice; [9]) was 2.3. The “2) Mouse performance B1” value (Balb/c mice; [9]) was 5, the “2) Mouse performance B2” value (Balb/c mice; [9]) was 4 and the “2) Mouse performance B3” value (Balb/c mice; [9]) was 0. The “3) Timing-sequence response and specificity C” value (Balb/c mice; [9]) was 1, the “3) Timing-sequence response and specificity C1” value (Balb/c mice; [9]) was 100 and the “3) Timing-sequence response and specificity C2” value (Balb/c mice; [9]) was 1244. The “3) Timing-sequence response and specificity C3” value (Balb/c mice; [9]) was 3, the “3) Timing-sequence response and specificity C4” value (Balb/c mice; [9]) was 0.241 and the Total single peptide (Balb/c mice; [9]) was 20.1. For the same sequence, the “1) 95 percentile grouping number A” value (Balb/c mice; [10]) was 5, the “1) 95 percentile grouping number A1” value (Balb/c mice; [10]) was 0.11 and the “2) Mouse performance B” value (Balb/c mice; [10]) was 2.5. For the same sequence, the “2) Mouse performance B1” value (Balb/c mice; [10]) was 5, the “2) Mouse performance B2” value (Balb/c mice; [10]) was 5 and the “2) Mouse performance B3” value (Balb/c mice; [10]) was 0. The “3) Timing-sequence response and specificity C” value (Balb/c mice; [10]) was 1, the “3) Timing-sequence response and specificity C1” value (Balb/c mice; [10]) was 260 and the “3) Timing-sequence response and specificity C2” value (Balb/c mice; [10]) was 1244. For the same sequence, the “3) Timing-sequence response and specificity C3” value (Balb/c mice; [10]) was 3, the “3) Timing-sequence response and specificity C4” value (Balb/c mice; [10]) was 0.241 and the Total single peptide (Balb/c mice; [10]) was 20.5. For the same sequence, the “1) 95 percentile grouping number A” value (Balb/c mice; [11]) was 4.5, the “1) 95 percentile grouping number A1” value (Balb/c mice; [11]) was 0.07 and the “2) Mouse performance B” value (Balb/c mice; [11]) was 3. The “2) Mouse performance B1” value (Balb/c mice; [11]) was 4, the “2) Mouse performance B2” value (Balb/c mice; [11]) was 5 and the “2) Mouse performance B3” value (Balb/c mice; [11]) was 2. For the same sequence, the “3) Timing-sequence response and specificity C” value (Balb/c mice; [11]) was 0, the “3) Timing-sequence response and specificity C1” value (Balb/c mice; [11]) was 153 and the “3) Timing-sequence response and specificity C2” value (Balb/c mice; [11]) was 1244. For the same sequence, the “3) Timing-sequence response and specificity C3” value (Balb/c mice; [11]) was 0, the “3) Timing-sequence response and specificity C4” value (Balb/c mice; [11]) was 0.000 and the Total single peptide (Balb/c mice; [11]) was 19.5.
